Assay results reported in patent US9120756B2, “Substituted phenylureas and phenylamides as vanilloid receptor ligands” (Gruenenthal GmbH, priority 2009, dated 2015).

Experiments:
Type in all cases: cell-based
hVR1 [1] = molecular target: T1, hVR1 (Homo sapiens (Human), UniProt Q8NER1); assay: FLIPR Ca2+ influx assay on CHO K1 cells transfected with the VR1 gene, capsaicin stimulus (method II); set-up: key to Ki (human being) Cap: result in words (NE / AG): AG=agonist; pAG=partial agonist; NE=no effect; conditions: for Ki (human being) Cap: result in words (NE / AG): capsaicin; for inhibition at 5 µM: CHO-K1, read-out: Ki (human being) Cap column: inhibition (as a percentage) @ 5 μM, capsaicin, inhibition determined at 5 μM; for Ki: capsaicin (Cap), read-out: Ki (human being) [nM] Cap; for inhibition at 1 µM: CHO-K1, read-out: Ki (human being) inhibition (as a percentage) @ 1 μM, capsaicin, inhibition determined at 1 μM
From the text: In the process, the Ca^2+ influx is quantified in the FLIPR assay with the aid of a Ca^2+-sensitive dye (type Fluo-4, Molecular Probes Europe BV, Leiden, the Netherlands) in a fluorescent imaging plate reader (FLIPR, Molecular Devices, Sunnyvale, USA), as described hereinafter.
The agonistic or antagonistic effect of the substances to be tested on the vanilloid receptor 1 (VR1) can also be determined using the following assay. In this assay, the influx of Ca^2+ through the channel is quantified with the aid of a Ca^2+-sensitive dye (type Fluo-4, Molecular Probes Europe BV, Leiden, the Netherlands) in a fluorescent imaging plate reader (FLIPR, Molecular Devices, Sunnyvale, USA).
Chinese hamster ovary cells (CHO K1 cells, European Collection of Cell Cultures (ECACC) United Kingdom) are stably transfected with the VR1 gene. For functional testing, these cells are plated out on poly-D-lysine-coated black 96-well plates having a clear base (BD Biosciences, Heidelberg, Germany) at a density of 25,000 cells/well. The cells are incubated overnight at 37° C. and 5% CO2 in a culture medium (Ham's F12 nutrient mixture, 10% by volume of FCS (foetal calf serum), 18 μg/ml of L-proline). The next day the cells are incubated with Fluo-4 (Fluo-4 2 μM, 0.01% by volume of Pluronic F127, Molecular Probes in HBSS (Hank's buffered saline solution), Gibco Invitrogen GmbH, Karlsruhe, Germany) for 30 minutes at 37° C. Subsequently, the plates are washed three times with HBSS buffer and after further incubation for 15 minutes at RT used for Ca^2+ measurement in a FLIPR assay. The Ca^2+-dependent fluorescence is measured before and after the addition of the substances to be tested (λex wavelength=488 nm, λem=540 nm). Quantification is carried out by measuring the highest fluorescence intensity (FC, fluorescence counts) over time.
The FLIPR protocol consists of 2 substance additions. First the compounds to be tested (10 μM) are pipetted onto the cells and the Ca^2+ influx is compared with the control (capsaicin 10 μM) (% activation based on the Ca^2+ signal after the addition of 10 μM of capsaicin). After 5 minutes' incubation, 100 nM of capsaicin are applied and the Ca^2+ influx is also determined.
Desensitising agonists and antagonists led to suppression of the Ca^2+ influx.
Starting from the percentage displacement caused by different concentrations of the compounds to be tested of general formula I, IC50 inhibitory concentrations which cause a 50-percent displacement of capsaicin were calculated. Ki values for the test substances were obtained by conversion by means of the Cheng-Prusoff equation (Cheng, Prusoff; Biochem. Pharmacol. 22, 3099-3108, 1973).

hVR1 [2] = molecular target: T1, hVR1; assay: FLIPR assay hVR1, after pH stimulus; set-up: key to IC50 (human being) hVR1 pH: result in words (NE / AG): AG=agonist; pAG=partial agonist; NE=no effect; conditions: for inhibition at 10 µM: read-out: IC50 (human being) hVR1 pH: inhibition (as a percentage) @ 10 μM, inhibition determined at 10 μM
Procedure: In this assay, the influx of Ca^2+ through the channel is quantified with the aid of a Ca^2+-sensitive dye (type Fluo-4, Molecular Probes Europe BV, Leiden, the Netherlands) in a fluorescent imaging plate reader (FLIPR, Molecular Devices, Sunnyvale, USA). Chinese hamster ovary cells (CHO K1 cells, European Collection of Cell Cultures (ECACC) United Kingdom) are stably transfected with the VR1 gene. For functional testing, these cells are plated out on poly-D-lysine-coated black 96-well plates having a clear base (BD Biosciences, Heidelberg, Germany) at a density of 25,000 cells/well. […] Subsequently, the plates are washed three times with HBSS buffer and after further incubation for 15 minutes at RT used for Ca^2+ measurement in a FLIPR assay. […] Quantification is carried out by measuring the highest fluorescence intensity (FC, fluorescence counts) over time. The FLIPR protocol consists of 2 substance additions. […] Desensitising agonists and antagonists led to suppression of the Ca^2+ influx. […] Ki values for the test substances were obtained by conversion by means of the Cheng-Prusoff equation (Cheng, Prusoff; Biochem. Pharmacol. 22, 3099-3108, 1973).

[3] = molecular target: rat-species vanilloid receptor 1 (VR1/TRPV1) (Rattus norvegicus (Rat), UniProt O35433); assay: FLIPR Ca2+ influx assay on rat dorsal root ganglia cells, capsaicin stimulus (method I); conditions: for inhibition at 5 µM: read-out: Ki (rat) Cap: inhibition (as a percentage) @ 5 μM, capsaicin, inhibition determined at 5 μM; for Ki: capsaicin (Cap)
Procedure: The agonistic or antagonistic effect of the substances to be tested on the rat-species vanilloid receptor 1 (VR1/TRPV1) can be determined using the following assay. In this assay, the influx of Ca^2+ through the receptor channel is quantified with the aid of a Ca^2+-sensitive dye (type Fluo-4, Molecular Probes Europe BV, Leiden, the Netherlands) in a fluorescent imaging plate reader (FLIPR, Molecular Devices, Sunnyvale, USA).
Complete medium: 50 ml HAMS F12 nutrient mixture (Gibco Invitrogen GmbH, Karlsruhe, Germany) with
10% by volume of FCS (foetal calf serum, Gibco Invitrogen GmbH, Karlsruhe, Germany, heat-inactivated);
2 mM L-glutamine (Sigma, Munich, Germany);
1% by weight of AA solution (antibiotic/antimyotic solution, PAA, Pasching, Austria) and 25 ng/ml NGF medium (2.5 S, Gibco Invitrogen GmbH, Karlsruhe, Germany)
Cell culture plate: Poly-D-lysine-coated, black 96-well plates having a clear base (96-well black/clear plate, BD Biosciences, Heidelberg, Germany) are additionally coated with laminin (Gibco Invitrogen GmbH, Karlsruhe, Germany), the laminin being diluted with PBS (Ca—Mg-free PBS, Gibco Invitrogen GmbH, Karlsruhe, Germany) to a concentration of 100 μg/ml. Aliquots having a laminin concentration of 100 μg/ml are removed and stored at −20° C. The aliquots are diluted with PBS in a ratio of 1:10 to 10 μg/ml of laminin and respectively 50 μL of the solution are pipetted into a recess in the cell culture plate. The cell culture plates are incubated for at least two hours at 37° C., the excess solution is removed by suction and the recesses are each washed twice with PBS. The coated cell culture plates are stored with excess PBS which is not removed until just before the feeding of the cells.
The vertebral column is removed from decapitated rats and placed immediately into cold HBSS buffer (Hank's buffered saline solution, Gibco Invitrogen GmbH, Karlsruhe, Germany), i.e. buffer located in an ice bath, mixed with 1% by volume (percent by volume) of an AA solution (antibiotic/antimyotic solution, PAA, Pasching, Austria). The vertebral column is cut longitudinally and removed together with fasciae from the vertebral canal. Subsequently, the dorsal root ganglia (DRG) are removed and again stored in cold HBSS buffer mixed with 1% by volume of an AA solution. The DRG, from which all blood remnants and spinal nerves have been removed, are transferred in each case to 500 μL of cold type 2 collagenase (PAA, Pasching, Austria) and incubated for 35 minutes at 37° C. After the addition of 2.5% by volume of trypsin (PAA, Pasching, Austria), incubation is continued for 10 minutes at 37° C. After complete incubation, the enzyme solution is carefully pipetted off and 500 μL of complete medium are added to each of the remaining DRG. […] The contents of each Falcon tube are respectively filtered through a 70 μm Falcon filter element and centrifuged for 10 minutes at 1,200 rpm and RT. The resulting pellet is respectively taken up in 250 μL of complete medium and the cell count is determined.
The number of cells in the suspension is set to 3×10^5 per ml and 150 μL of this suspension are in each case introduced into a recess in the cell culture plates coated as described hereinbefore. […] Subsequently, the cells are loaded with 2 μM of Fluo-4 and 0.01% by volume of Pluronic F127 (Molecular Probes Europe BV, Leiden, the Netherlands) in HBSS buffer (Hank's buffered saline solution, Gibco Invitrogen GmbH, Karlsruhe, Germany) for 30 min at 37° C., washed 3 times with HBSS buffer and after further incubation for 15 minutes at RT used for Ca^2+ measurement in a FLIPR assay. The Ca^2+-dependent fluorescence is in this case measured before and after the addition of substances (λex=488 nm, λem=540 nm). Quantification is carried out by measuring the highest fluorescence intensity (FC, fluorescence counts) over time.
The FLIPR protocol consists of 2 substance additions.

Sequence of rat-species vanilloid receptor 1 (VR1/TRPV1) (O35433 whole entry): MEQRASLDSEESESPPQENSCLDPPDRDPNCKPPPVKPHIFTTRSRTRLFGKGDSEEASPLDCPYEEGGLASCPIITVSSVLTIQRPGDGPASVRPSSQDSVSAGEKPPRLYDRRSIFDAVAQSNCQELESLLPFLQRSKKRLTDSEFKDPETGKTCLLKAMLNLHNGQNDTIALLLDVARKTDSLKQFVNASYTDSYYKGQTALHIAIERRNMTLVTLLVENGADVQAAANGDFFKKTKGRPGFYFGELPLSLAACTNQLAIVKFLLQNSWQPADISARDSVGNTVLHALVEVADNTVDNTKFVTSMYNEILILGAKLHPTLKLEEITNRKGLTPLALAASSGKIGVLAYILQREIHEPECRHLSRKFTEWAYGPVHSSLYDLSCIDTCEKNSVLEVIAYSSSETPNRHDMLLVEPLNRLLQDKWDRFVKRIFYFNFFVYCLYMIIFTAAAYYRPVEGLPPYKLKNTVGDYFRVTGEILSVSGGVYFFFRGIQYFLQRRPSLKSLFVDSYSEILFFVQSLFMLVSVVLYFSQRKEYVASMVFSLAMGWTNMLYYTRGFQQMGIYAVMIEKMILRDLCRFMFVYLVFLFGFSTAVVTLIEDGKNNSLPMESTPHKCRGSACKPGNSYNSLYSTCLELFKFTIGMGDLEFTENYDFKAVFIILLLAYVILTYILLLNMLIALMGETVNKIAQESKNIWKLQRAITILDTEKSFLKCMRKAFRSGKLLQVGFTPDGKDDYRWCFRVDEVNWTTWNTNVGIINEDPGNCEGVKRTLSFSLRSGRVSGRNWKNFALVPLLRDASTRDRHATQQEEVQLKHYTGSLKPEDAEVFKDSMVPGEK
T1 sequence (Q8NER1 whole entry): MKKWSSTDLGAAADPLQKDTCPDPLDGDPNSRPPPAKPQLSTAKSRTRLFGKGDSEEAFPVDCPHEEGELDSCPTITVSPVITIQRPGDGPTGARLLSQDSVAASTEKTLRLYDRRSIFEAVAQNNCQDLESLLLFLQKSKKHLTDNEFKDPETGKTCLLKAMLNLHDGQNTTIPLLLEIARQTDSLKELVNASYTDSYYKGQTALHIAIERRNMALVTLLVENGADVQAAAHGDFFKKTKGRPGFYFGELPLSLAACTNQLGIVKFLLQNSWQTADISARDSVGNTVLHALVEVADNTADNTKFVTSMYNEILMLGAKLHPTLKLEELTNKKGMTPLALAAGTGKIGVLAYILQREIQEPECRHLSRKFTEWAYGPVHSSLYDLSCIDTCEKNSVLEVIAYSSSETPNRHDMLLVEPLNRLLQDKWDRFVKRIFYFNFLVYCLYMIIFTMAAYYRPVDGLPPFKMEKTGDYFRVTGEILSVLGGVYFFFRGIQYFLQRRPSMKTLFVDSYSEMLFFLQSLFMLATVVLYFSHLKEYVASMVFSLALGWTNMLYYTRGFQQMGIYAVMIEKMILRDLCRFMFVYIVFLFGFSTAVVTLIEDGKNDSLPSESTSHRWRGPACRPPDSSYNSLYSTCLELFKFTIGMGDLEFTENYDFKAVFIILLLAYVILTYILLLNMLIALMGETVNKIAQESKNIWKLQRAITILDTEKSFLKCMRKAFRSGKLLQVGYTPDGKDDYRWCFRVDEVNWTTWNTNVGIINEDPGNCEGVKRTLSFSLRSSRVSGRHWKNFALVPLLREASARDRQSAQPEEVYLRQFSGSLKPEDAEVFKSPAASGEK

| SMILES | IC50 (human being) hVR1 pH: result in words (NE / AG) (hVR1 [2]) | inhibition at 5 µM [3] [%] | Ki (hVR1 [1]) [nM] | Ki [3] [nM] | also measured |
| --- | --- | --- | --- | --- | --- |
| CC(C(=O)NCc1cc(C(C)(C)C)n[nH]1)c1ccc(NS(C)(=O)=O)c(F)c1 (centres unmarked) [Example 1, N-((3-tert-butyl-1H-pyrazol-5-yl)methyl)-2-(3-fluoro-4-(methylsulphonamido)phenyl)propanamide] | NE | 25 |  |  | Ki (human being) Cap: result in words (NE / AG) (hVR1 [1]): NE |
| C[C@H](C(=O)NCc1cc(C(C)(C)C)n[nH]1)c1ccc(NS(C)(=O)=O)c(F)c1 [Example 2, (S)-N-((3-tert-butyl-1H-pyrazol-5-yl)methyl)-2-(3-fluoro-4-(methylsulphonamido)phenyl)propanamide] | NE | 25 |  |  | Ki (human being) Cap: result in words (NE / AG) (hVR1 [1]): NE |
| CC(C(=O)NCc1cc(C(C)(C)C)nn1C)c1ccc(NS(C)(=O)=O)c(F)c1 (centres unmarked) [Example 3, N-((3-tert-butyl-1-methyl-1H-pyrazol-5-yl)methyl)-2-(3-fluoro-4-(methylsulphonamido)phenyl)propanamide] | NE | 14 |  |  | inhibition at 5 µM (hVR1 [1]): 12% |
| C[C@H](C(=O)NCc1cc(C(C)(C)C)nn1C)c1ccc(NS(C)(=O)=O)c(F)c1 [Example 4, (S)-N-((3-tert-butyl-1-methyl-1H-pyrazol-5-yl)methyl)-2-(3-fluoro-4-(methylsulphonamido)phenyl)propanamide] | NE | 20 |  |  | inhibition at 5 µM (hVR1 [1]): 9% |
| CCCCCCn1nc(C(C)(C)C)cc1CNC(=O)[C@@H](C)c1ccc(NS(C)(=O)=O)c(F)c1 [Example 6, (S)-N-((3-tert-butyl-1-hexyl-1H-pyrazol-5-yl)methyl)-2-(3-fluoro-4-(methylsulphonamido)phenyl)propanamide] |  |  | 27.7 | 14.5 | inhibition at 10 µM (hVR1 [2]): 13% |
| CC(C(=O)NCc1cc(C(C)(C)C)nn1C1CCCCC1)c1ccc(NS(C)(=O)=O)c(F)c1 (centres unmarked) [Example 7, N-((3-tert-butyl-1-cyclohexyl-1H-pyrazol-5-yl)methyl)-2-(3-fluoro-4-(methylsulphonamido)phenyl)propanamide] | NE |  | 21.6 | 0.35 |  |
| CC(C(=O)NCc1cc(C(C)(C)C)nn1-c1ccc(C(C)(C)C)cc1)c1ccc(NS(C)(=O)=O)c(F)c1 (centres unmarked) [Example 13, N-((3-tert-butyl-1-(4-tert-butylphenyl)-1H-pyrazol-5-yl)methyl)-2-(3-fluoro-4-(methylsulphonamido)phenyl)propanamide] |  |  | 75.2 | 25.9 |  |
| CC(C(=O)NCc1cc(C(C)(C)C)nn1-c1ccc(Cl)cc1)c1ccc(NS(C)(=O)=O)c(F)c1 (centres unmarked) [Example 14, N-((3-tert-butyl-1-(4-chlorophenyl)-1H-pyrazol-5-yl)methyl)-2-(3-fluoro-4-(methylsulphonamido)phenyl)propanamide] |  |  | 3.7 | 7.2 | inhibition at 10 µM (hVR1 [2]): 25% |
| C[C@H](C(=O)NCc1cc(C(C)(C)C)nn1-c1ccc(Cl)cc1)c1ccc(NS(C)(=O)=O)c(F)c1 [Example 15, (S)-N-((3-tert-butyl-1-(4-chlorophenyl)-1H-pyrazol-5-yl)methyl)-2-(3-fluoro-4-(methylsulphonamido)phenyl)propanamide] |  |  | 2.1 | 2.5 | inhibition at 5 µM (hVR1 [2]; read-out: IC50 (human being) hVR1 pH column: inhibition (as a percentage) @ 5 μM, inhibition determined at 5 μM): 14% |
| Cc1ccc(/C=C/n2nc(C(C)(C)C)cc2CNC(=O)C(C)c2ccc(NS(C)(=O)=O)c(F)c2)cc1 (centres unmarked) [Example 19, (E)-N-((3-tert-butyl-1-(4-methylstyryl)-1H-pyrazol-5-yl)methyl)-2-(3-fluoro-4-(methylsulphonamido)phenyl)propanamide] | NE |  |  | 819 | inhibition at 1 µM (hVR1 [1]): 44% |
| COc1ccc(-n2nc(C(C)(C)C)cc2CNC(=O)C(C)c2ccc(NS(C)(=O)=O)c(F)c2)cc1 (centres unmarked) [Example 20, N-((3-tert-butyl-1-(4-methoxyphenyl)-1H-pyrazol-5-yl)methyl)-2-(3-fluoro-4-(methylsulphonamido)phenyl)propanamide] | NE |  |  | 2830 | inhibition at 1 µM (hVR1 [1]): 55% |
